Common to all, as to type: in vivo
Assay [1] concerns crabgrass (Digitaria sanguinalis L.), DIGSA. Nature of the assay: Test Example 2: post-emergence (foliage treatment) herbicidal activity (growth controlling degree). To be noted: 1.5-2.2 leaf stage. The source says: (§1) Upland field soil was put into a 1/170,000 ha pot, and seeds of various plants were sown. Then, when the plants reached predetermined leaf stages [I. barnyardgrass (Echinochloa crus-galli L.), ECHCG: 1.8-2.4 leaf stage, 2. crabgrass (Digitaria sanguinalis L.), DIGSA: 1.5-2.2 leaf stage, 3. green foxtail (Setaria viridis L.), SETVI: 1.7-2.5 leaf stage, 4. redroot pigweed (Amaranthus retroflexus L.), AMARE: 0.1-0.3 leaf stage, 5. prickly sida (Sida spinosa L.), SIDSP: 0.3-0.5 leaf stage, 6. velvetleaf (Abutilon theophrasti), ABUTH: 0.3-0.4 leaf stage, 7. common cocklebur (Xanthium strumarium L.), XANST: 0.2-0.6 leaf stage, 8. rice (Oryza sativa L.), ORYSA: 1.6-2.2 leaf stage, 9. wheat (Triticum aestivum L.), TRZAX: 2.8 leaf stage, 10. corn (Zea mays L.), ZEAMX: 2.2-2.5 leaf stage, 11. soybean (Glycine max Merr.), GLXMA: 0.2-0.3 leaf stage], a wettable powder or emulsifiable concentrate having the compound of the present invention formulated in accordance with a usual formulation method, was weighed so that the active ingredient would be a predetermined amount, and diluted with water in an amount of 500 L/ha. To the diluted solution, 0.1%(v/v) of an agricultural spreader was added. The herbicide adjusted was applied by a small size sprayer for foliage treatment. On the […] day after the application of the herbicide, the growth of the respective plants was visually observed, and the herbicidal effects were evaluated by growth controlling degrees (%) ranging from 0 (equivalent to the untreated control) to 100 (complete kill), whereby the results shown in Table 12, were obtained. Compound Nos. in Table 12 correspond to Compound Nos. in Table 1 to 7 given hereinbefore.

Assay [2] has as its system corn (Zea mays L.), ZEAMX. The description is as above. To be noted: 2.2-2.5 leaf stage.
From the text: as §1

In assay [3] the test system is common cocklebur (Xanthium strumarium L.), XANST. The assay is described as above. The following applies: 0.2-0.6 leaf stage.
From the text: as §1

Assay [4] has as its system barnyardgrass (Echinochloa crus-galli L.), ECHCG. The assay is described as above. To be noted: 1.8-2.4 leaf stage.
From the text: as §1

The test system of assay [5] is soybean (Glycine max Merr.), GLXMA. The description is as above. The following applies: 0.2-0.3 leaf stage.
From the text: as §1

The test system of assay [6] is redroot pigweed (Amaranthus retroflexus L.), AMARE. The description is as above. The following applies: 0.1-0.3 leaf stage.
From the text: as §1

The subject of assay [7] is green foxtail (Setaria viridis L.), SETVI. The description is as above. The following applies: 1.7-2.5 leaf stage.
From the text: as §1

In assay [8] the test system is rice (Oryza sativa L.), ORYSA. The description is as above. The following applies: 1.6-2.2 leaf stage.
From the text: as §1

Assay [9] has as its system velvetleaf (Abutilon theophrasti), ABUTH. The assay is described as above. To be noted: 0.3-0.4 leaf stage.
From the text: as §1

Assay [10] deals with prickly sida (Sida spinosa L.), SIDSP. The assay is described as above. To be noted: 0.3-0.5 leaf stage.
From the text: as §1

Assay [11] has as its system japanese bulrush (Scirpus juncoides: SCPJO). As to the kind of experiment: Test Example 3: water application herbicidal activity, paddy (growth controlling degree). To be noted: rate 63 g a.i./ha, water application under submerged condition, paddy pot, japanese bulrush at 0.5 leaf stage; for pest or weed control at 63 g/ha: Schoenoplectiella juncoides, 336 h. From the text: (§2) Paddy field soil was put into a {fraction (1/1,000,000)} ha pot, and seeds of barnyardgrass (Echinochloa oryzicola: ECHOR) and japanese bulrush (Scirpus juncoides: SCPJO) were sown and slightly covered with soil. Then the pot was left to stand still in a greenhouse in a state where the depth of flooding water was from 0.5 to 1 cm, and one day later, tubers of japanese ribbon wapato (Sagittaria pygmaea: SAGPY) were planted. Thereafter, the depth of flooding water was maintained at a level of from 3 to 4 cm, and when barnyardgrass and japanese bulrush reached a 0.5 leaf stage, an aqueous diluted solution of a wettable powder or emulsifiable concentrate having the compound of the present invention formulated in accordance with a usual formulation method, was uniformly applied under submerged condition by a pipette so that the dose of the active ingredient would be at a predetermined level. On the other hand, paddy filed soil was put into a {fraction (1/1,000,000)} ha pot and puddled and leveled, and the depth of flooding water was from 3 to 4 cm. One day later, rice (Oryza sativa L.: ORYSA) of 2 leaf stage was transplanted in a depth of 3 cm. On the 4th day after the transplantation, the compound of the present invention was applied in the same manner as described above. On the 14th day after the application of the herbicide, the growth of barnyardgrass, japanese burlush and japanese ribbon wapato was visually observed and on the 21st day after the application of the herbicide, the growth of rice was visually observed, and the herbicidal effects were evaluated by growth controlling degrees (%) ranging from 0 (equivalent to the untreated control) to 100 (complete kill), whereby the results shown in Table 13, were obtained. Compound Nos. in Table 13 correspond to Compound Nos. in Table 1 to 7 given hereinbefore.

Assay [12] relates to rice (Oryza sativa L.: ORYSA). The assay is described as above. To be noted: rate 63 g a.i./ha, paddy pot, rice of 2 leaf stage transplanted, treated on the 4th day after transplantation; for pest or weed control at 63 g/ha: Oryza sativa, 504 h.
From the text: as §2

Assay [13] deals with japanese ribbon wapato (Sagittaria pygmaea: SAGPY). The assay is described as above. The following applies: rate 63 g a.i./ha; water application under submerged condition, paddy pot; tubers of japanese ribbon wapato planted.
From the text: as §2

The test system of assay [14] is barnyardgrass (Echinochloa oryzicola: ECHOR). The description is as above. The following applies: rate 63 g a.i./ha, water application under submerged condition, paddy pot, barnyardgrass at 0.5 leaf stage; for pest or weed control at 63 g/ha: Echinochloa oryzicola, 336 h.
From the text: as §2

The mark [15] stands for this setting: Digitaria sanguinalis, 504 h, 31 g a.i./ha, read-out: growth controlling degree, DIGSP.
[16] abbreviates: Xanthium strumarium, 504 h, 31 g a.i./ha.
[17] abbreviates: Echinochloa crus-galli, 504 h, 31 g a.i./ha.
Where [18] appears, read: Glycine max, 504 h, 31 g a.i./ha.
Setting [19] is: Setaria viridis, 504 h, 31 g a.i./ha.
The mark [20] stands for this setting: Oryza sativa, 504 h, 31 g a.i./ha.
[21] abbreviates: Abutilon theophrasti, 504 h, 31 g a.i./ha.
The mark [22] stands for this setting: Sida spinosa, 504 h, 31 g a.i./ha.

Results on four compounds are retold here after US20040157738A1, “Novel oxygen containing fused cyclic derivatives and herbicidal, desiccant and defoliate compositions containing them” (ISHIHARA SANGYO KAISHA, LTD., priority 2003, published 2004).

For the compound `Fc1cc(Cl)c2c(c1-c1nn3c(c1Cl)CCCC3)CCCO2` [Compound 1-79, 3-chloro-2-(8-chloro-6-fluoro-3,4-dihydro-2H-1-benzopyran-5-yl)-4,5,6,7-tetrahydro-pyrazolo[1,5-a]pyridine], the pest or weed control at 31 g/ha was found to be 40% in assay [1] (setting [15]); 100% in [3] (setting [16]); 95% in [4] (setting [17]); 70% in assay [5] (setting [18]); 100% in assay [7] (setting [19]); 100% in assay [9] (setting [21]). In addition, the pest or weed control at 31 g/ha in assay [10] (setting [22]) is 98%. Moreover, the plant injury (as a rule, how far the test organism was held down) at 31 g/ha in assay [2] (Zea mays, 504 h, 31 g a.i./ha) amounted to 50%; in [8] (setting [20]) it was 50%. The “growth controlling degree, AMARE” value in assay [6] (31 g a.i./ha) amounted to 90%. Also, the results for the pest or weed control at 63 g/ha in assay [11], in [12] and in [14] were 100%, 40% and 100%, respectively. Besides, the “Water Application Herbicidal Activity SAGPY (growth controlling degree)” value in [13] is 100%.

For the compound `CCCCCC1CCc2c(c(Cl)cc(F)c2-c2nn(C)c(OC(F)F)c2Cl)O1` (centres unmarked) [Compound 1-101], in assay [1] (31 g a.i./ha), the “growth controlling degree, DIGSP” value was determined as 100%. Also, the “growth controlling degree, ZEAMX” value in assay [2] (31 g a.i./ha) is listed as 70%. Moreover, in assay [3] (31 g a.i./ha), the “growth controlling degree, XANST” value amounted to 100%. Moreover, in assay [4] (31 g a.i./ha), the “growth controlling degree, ECHCG” value amounted to 100%. Further, in assay [5] (31 g a.i./ha), the “growth controlling degree, GLXMA” value was found to be 70%. Moreover, the “growth controlling degree, AMARE” value in assay [6] (31 g a.i./ha) is reported as 100%. Besides, the “growth controlling degree, SETVI” value in assay [7] (31 g a.i./ha) is listed as 100%. For the same compound, the “growth controlling degree, ORYSA” value in [8] (31 g a.i./ha) is recorded as 60%. In assay [9] (31 g a.i./ha), the “growth controlling degree, ABUTH” value amounted to 100%. Moreover, the “growth controlling degree, SIDSP” value in assay [10] (31 g a.i./ha) was found to be 100%. In addition, the “Water Application Herbicidal Activity SCPJO (growth controlling degree)” value in [11] is listed as 50%. Also, the “Water Application Herbicidal Activity ORYSA (growth controlling degree)” value in assay [12] came out at 35%. In assay [13], the “Water Application Herbicidal Activity SAGPY (growth controlling degree)” value is 100%. Further, the “Water Application Herbicidal Activity ECHOR (growth controlling degree)” value in [14] worked out at 100%.

Consider `Cn1nc(-c2c(F)cc(Cl)c3c2CCC(c2ccccc2)O3)c(Cl)c1OC(F)F` (centres unmarked) [Compound 1-42], for which the pest or weed control at 63 g/ha in [1] (Digitaria sanguinalis, 504 h, 63 g a.i./ha, read-out: growth controlling degree, DIGSP) was found to be 50%; in assay [3] (Xanthium strumarium, 504 h, 63 g a.i./ha), 100%; in assay [4] (Echinochloa crus-galli, 504 h, 63 g a.i./ha), 60%; in assay [5] (Glycine max, 504 h, 63 g a.i./ha) it was 60%; in [7] (Setaria viridis, 504 h, 63 g a.i./ha), 98%; in assay [9] (Abutilon theophrasti, 504 h, 63 g a.i./ha), 100%. The pest or weed control at 63 g/ha was found to be 100% in assay [10] (Sida spinosa, 504 h, 63 g a.i./ha); 98% in [11]; 35% in assay [12]; 100% in assay [14]. Moreover, the plant injury at 63 g/ha came out at 30% in assay [2] (Zea mays, 504 h, 63 g a.i./ha) and 70% in [8] (Oryza sativa, 504 h, 63 g a.i./ha). Also, the “growth controlling degree, AMARE” value in assay [6] (63 g a.i./ha) worked out at 100%. In addition, in [13], the “Water Application Herbicidal Activity SAGPY (growth controlling degree)” value is on record as 100%.

With `CC1CCc2c(c(Cl)cc(F)c2-c2nn(C)c(C(F)(F)F)c2Cl)O1` (centres unmarked) [Compound 1-8], the pest or weed control at 31 g/ha in assay [1] (setting [15]) is 10%; in assay [3] (setting [16]), 70%; in assay [4] (setting [17]) it was 0%; in assay [5] (setting [18]), 40%; in [7] (setting [19]) it was 30%; in assay [9] (setting [21]), 100%. In addition, the pest or weed control at 31 g/ha in assay [10] (setting [22]) was found to be 80%. For the same compound, the plant injury at 31 g/ha in assay [2] (Zea mays, 504 h, 31 g a.i./ha) was 50%; in [8] (setting [20]), 40%. Moreover, in [6] (31 g a.i./ha), the “growth controlling degree, AMARE” value is on record as 95%. The pest or weed control at 63 g/ha in [11] was 60%; in assay [12], 10%; in assay [14] it was 60%. The “Water Application Herbicidal Activity SAGPY (growth controlling degree)” value in assay [13] is on record as 40%.
